Laboratory results: patent US9072729B2, “Method for treating fibrosis and cancer with imidazolium and imidazolinium compounds” (Agency for Science, Technology and Research, priority 2008, dated 2015)

Experiments:
[1] = system: col1a1, fibronectin, GFAP, SMAA, TGF-β1, TGFβ RI protein expression; experiment: Western blotting of fibrotic marker proteins in HSC T6 cells; format: cell-based, rat; conditions: DBZIM 100 μM, TDBZIM 50 μM, 48 h
Protocol: FIG. 8. […] The target proteins were recognized by the respective antibodies, and visualized by the ECL method. The membrane was stripped and re-probed for α-tubulin as the loading control. FIG. 13. […] DPIM (2 mM), EGCG (25 μM) and DBZIM (100 μM) were dissolved in H2O. Alpha-tubulin was used as the loading control. Densitometric measurement of protein band intensity was normalized against the respective vehicle control. (B) Relative densitometric quantification of protein band intensity. The vehicle treated sample was normalized to 1. Protein extracts were prepared by lysing a cell pellet in 10 volumes of boiled 1% sodium dodecyl sulfate (SDS) (90-95° C.) for 10 min for GFAP, or using NE-PER nuclear and cytoplasmic extraction reagents from Pierce (IL, USA) for nuclear proteins, or RIPA (Pierce, Ill., USA) for SMAA, fibronectin, collagen αI(I), TGF-β1 and TGFβ RI. Protein content was quantified using a BCA kit (Pierce, Ill., USA). 15 μg of total protein were resolved in 4-12% gradient SDS/polyacrylamide gel electrophoresis (PAGE) gel, and transferred to a nitrocellular membrane. The membrane was then probed with primary antibodies against GFAP (Dako, Denmark), SMAA (Sigma, USA), procollagen αI(I), fibronectin, c-Jun, c-Fos, JunB, JunD, […] Cruz Biotechnology, CA, USA), NF-κB P65, TGF-β1 and TGFβ RI (Abeam, UK), and detected by horseradish peroxidase-conjugated secondary antibody (Santa Cruz Biotechnology, CA, USA). […] Protein bands were recorded on X-ray film by reacting with ECL chemiluminescence reagents (Amersham Biosciences, NJ, USA). Alpha-tubulin (Abeam, UK) was used as the loading control for total protein, and Tata binding protein (TBP) (Abeam, UK) was used as the loading control for nuclear protein.

HLE cells = experiment: Growth inhibition assay (MTT), HLE; format: cell-based, human
Protocol: The effect of IMSs (IBN-15, IBN-19, IBN-24, IBN-25 and IBN-32) on the proliferative properties of p53 mutant cell line HLE was examined. The cytotoxicity activity and proliferation inhibition of IMSs in tumor cells were measured by MTT. […] The control experiments with DMSO alone (0.05% v/v) had no effect on cell proliferation. […] (Table 4) Microscopic observation on the cell cultures visually confirmed the inhibition on cell proliferation by IMSs. (FIG. 35)

[2] = system: p53 signaling pathway-associated gene expression in HLE cells; experiment: Real-time PCR array of p53 signaling pathway-associated genes; format: cell-based, human; conditions: 48 h; for increase of ATM gene expression vs control: IBN-19 90 uM, IBN-24 90 uM, IBN-25 40 uM
Protocol: FIG. 42. Real-Time PCR array analysis of p53 signaling pathway-associated gene expression. (A) Anti-apoptotic genes. (B) Growth inhibition gene SESN2. (C) Cell cycle check point genes. (D) Cell proliferation genes. (E) DNA repair gene ATM. The relative level of gene expression was normalized with housekeeping gene GAPDH. Values are expressed as mean±standard deviation.
Cells were seeded at a density of 4×10^5 cells per dish in 10 cm dishes. Next day, the cells were exposed to 90 uM of IBN-19, 90 uM of IBN-24, 40 uM of IBN-25 and 0.045% of DMSO (Dimethyl Sulphoxide) as the control. After 48 hrs, total RNAs were extracted from the cells using Nucleospin RNA II kit as per the manufacturer's istructions. RNA quality and yield were evaluated after spectrophotometer measurements.
The human apoptosis PCR array (RT^2 Profiler) was used to analyze mRNA levels of 84 key genes involved in apoptosis, in a 96-well format, according to the manufacturer's instructions (Super Array Bioscience). First-strand cDNA was synthesized with 1 μg of RNA by using a PCR array first strand-synthesis kit (C-03; Super array Bioscience). This kit uses reverse transcriptase (Power Script; Super array Bioscience) and a combination of random primers and oligo dT primers. The total volume of the reaction was 20 μL diluted to 100 μL. PCR reactions were performed using real-time PCR (79s00HT 96-well block with RT^2 Real-Time SYBR Green PCR master mix PA-012; Applied Biosystems Instruments 7500). The total volume of the PCR reaction was 25 μl. An equivalent of […] of RNA was applied to the PCR reaction. The thermocycler parameters were 95° C. for 10 minutes, followed by 40 cycles of 95° C. for 15 seconds and 60° C. for 1 minute. Relative changes in gene expression were calculated using the ΔΔCt (cycle threshold) method. An average of the number of cycles of the five housekeeping genes, GAPDH, Actin-β, β2m, Hprt1, and Rpl13d, was used to normalize the expression between samples. The expression data are presented as fold regulation. GAPDH gene expression levels were utilized as an internal control to normalize the data. Reported fold changes in expression are the ratios of treatment over control values.
To obtain more information on how the IMSs influence other gene expression in the HLE cells, 84 genes related to p53 signal transduction were profiled by using the RT^2 Profiler array (Super Array Bioscience) (FIG. 42A, B, C, D, E). The array includes keys genes relevant to p53, apoptosis, cell cycle, cell growth, proliferation, differentiation, and DNA repair.

**Q.** Which SMAA protein expression [1] does the source give for “1,3,5-tris(4-methyl-imidazolium)-linked cyclophane.3Br [TDBZIM]” here?
**A.** The SMAA protein expression was “enhanced”.

**Q.** What about the “procollagen αI(I) and fibronectin protein expression” value [1] of the same compound?
**A.** The value was “attenuated procollagen αI(I) and fibronectin significantly”.

**Q.** Which results are given for `[Br-].c1ccc(Cn2cc[n+](Cc3ccccc3)c2)cc1` [DBZIM, 1,3-bisbenzylimidazolium bromide]?
**A.** SMAA protein expression [1]: suppressed; procollagen αI(I) and fibronectin protein expression [1]: attenuated procollagen αI(I) and fibronectin significantly

**Q.** `CC(=O)Oc1ccc(C[n+]2ccn(Cc3ccccc3)c2C)cc1.[Cl-]` [IBN-19, 1-benzyl-3-(4-acetate-benzyl)-2-methyl-imidazolium chloride] was tested. Which IC50 (HLE cells; 72 h) did it give?
**A.** Its IC50 is 90 µM.

**Q.** And the IC50 (HLE cells; 120 h)?
**A.** The IC50 was 28 µM.

**Q.** And the SESN2 gene expression [2]?
**A.** The SESN2 gene expression was “markedly induced”.

**Q.** What about the “increase of ATM gene expression vs control” value [2] of the same compound?
**A.** The value was 36 folds.

**Q.** Which IC50 (HLE cells; Homo sapiens, 72 h) does the source give for `Cc1ccc(C[n+]2ccn(Cc3ccccc3)c2)cc1.[Cl-]` [IBN-24, 1-benzyl-3-(4-methylbenzyl)-imidazolium chloride] here?
**A.** Its IC50 is 90 µM.

**Q.** What about the IC50 (HLE cells; Homo sapiens, 120 h) of the same compound?
**A.** The IC50 was 30 µM.

**Q.** What about the “anti-apoptotic gene BCl-2 expression” value [2] of the same compound?
**A.** The value was “significantly down regulated”.

**Q.** And the “cell proliferation genes (Mcl1, Egr1, Foxo3, Jun, Mdm4, Nf1, Prm1D, Sesn1, E2f11, Prkca, Brca1)” value [2]?
**A.** The value was “significantly down regulated”.

**Q.** What about the “increase of ATM gene expression vs control” value [2] of the same compound?
**A.** Its value is 4.6 folds.
